# According to patent publication US11981680B2, “Substituted thienopyrroles as PAD4 inhibitors” (BRISTOL-MYERS SQUIBB COMPANY, priority 2018, dated 2024):
# Molecular target: human PAD4 (hPAD4) (Homo sapiens (Human), UniProt Q9UM07)
# Assay: RFMS Human PAD4 Functional Assay
# Format: biochemical
# Settings: rapid-fire mass spectrum (RFMS) assay; 5 nM hPAD4 enzyme, 250 μM BAEE, 30 min preincubation at 37° C.
# Description: Compounds of the present invention were assayed as inhibitors of PAD4 using the assay protocol described below.
# RFMS Human PAD4 Functional Assay:
# Compounds were solubilized in 100% DMSO to achieve a10 mM compound concentration. Compound stock solutions were stored at RT. A series of dilutions were prepared in DMSO and mixed 8 times with 20 μL mixing volume. Final top concentration of compound in the assay is 50 μM. Final assay conditions were as follows: • Reaction volume: 26 μl • Assay buffer: 25 mM hepes, pH 7.5, 5 mM NaCl, 1 mM DTT, 0.2 mg/ml BSA, 0.01% CHAPS, 50 μM Calcium, and 5 μM TPEN • Final concentrations: 5 nM hPAD4 enzyme, 250 μM BAEE, and 0.5% DMSO • Total incubation time: 30 mins compound and enzyme preincubation at 37° C., 90 min enzyme/substrate reaction, 30 min reaction with phenyl glyoxal at 37° C. • Stop solution: 40 μl 5% TCA in ACN
# 0.13 μL of compound solution was added to 13 μL of 10 nM PAD4 in assay buffer. After 30 min 13 μl of 500 μM of BAEE was added in 25 mM hepes, pH 7.5, 5 mM NaCl, 1 mM DTT, 0.2 mg/ml BSA, 0.01% CHAPS, 50 μM Calcium, 5 μM TPEN was added and the reaction incubated for 90 min at 37° C. The enzymatic reaction was quenched by addition of 15 μl of 6.1N TCA, 100% Final Concentration is 20%, 35 μl of 8.5 mM phenyl glyoxal (final concentration 4 mM) is then added and the reaction is incubated for 30 min at 37° C.
# After 30 minutes the plates are spun down to remove all precipitate. The enzyme reaction was quenched with an equal volume of methanol containing internal standard (modified citrulline). Samples were loaded onto the Rapid Fire RF300 system (Agilent) wherein they were first sipped for 1000 ms and then directly loaded to a C18 separations cartridge using a mixture of acetonitrile containing 0.01% formic acid for 3000 ms desalting. The flow rate of the mobile phase was 1.5 ml/min. Once the samples were eluted from the cartridge, a mobile phase of acetonitrile containing 0.01% formic acid was used to move the samples into the mass spectrometer for 4000 ms at a flow rate of 1.25 ml/min/Sciex API5500 triple quadrupole mass spectrometer (Applied Biosystems) equipped with ESI was used to analyze the peptidyl citrulline and internal standard ions.
# MRM transition of product and internal standard were monitored at m/z 424.5 to 350.4 and m/z 293 to 247 respectively. The dwell time for each transition was set at 200 ms, and the ESI voltage was used at 5500 with a source temperature of 400° C. Extracted ion peaks for each transition were integrated using the Rapid Fire Integrator software. Peak area of analyte was normalized with internal standard.).
# Chain of human PAD4 (hPAD4) (Q9UM07 whole entry): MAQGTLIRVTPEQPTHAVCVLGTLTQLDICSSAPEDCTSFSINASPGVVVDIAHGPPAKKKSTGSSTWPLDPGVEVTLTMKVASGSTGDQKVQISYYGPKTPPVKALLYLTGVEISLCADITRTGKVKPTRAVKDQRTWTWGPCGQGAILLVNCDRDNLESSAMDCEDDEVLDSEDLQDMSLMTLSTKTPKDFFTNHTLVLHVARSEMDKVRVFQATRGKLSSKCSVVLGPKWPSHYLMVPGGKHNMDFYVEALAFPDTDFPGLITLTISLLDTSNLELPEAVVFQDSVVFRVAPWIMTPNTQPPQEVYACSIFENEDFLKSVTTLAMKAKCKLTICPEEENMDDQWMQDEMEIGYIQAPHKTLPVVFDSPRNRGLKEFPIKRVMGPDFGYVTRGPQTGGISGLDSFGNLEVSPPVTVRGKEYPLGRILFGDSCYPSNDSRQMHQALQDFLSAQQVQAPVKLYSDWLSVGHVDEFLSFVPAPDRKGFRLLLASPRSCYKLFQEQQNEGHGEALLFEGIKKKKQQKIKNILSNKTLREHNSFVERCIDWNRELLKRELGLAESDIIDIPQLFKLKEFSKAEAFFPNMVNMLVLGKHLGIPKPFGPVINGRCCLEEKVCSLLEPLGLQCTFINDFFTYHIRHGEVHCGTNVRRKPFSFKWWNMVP
row,IC50 [nM],Compound
1,40,"COc1cc(C(=O)N2C[C@H]3CC[C@@H]2[C@@H]3N)cc2nc(-c3cc4scc(C5CCOCC5)c4n3CC3CC3)n(C)c12 [Example 8, ((1R,4R,7R)-7-amino-2-azabicyclo[2.2.1]heptan-2-yl)(2-(4-(cyclopropylmethyl)-3-(tetrahydro-2H-pyran-4-yl)-4H-thieno[3,2-b]pyrrol-5-yl)-7-methoxy-1-methyl-1H-benzo[d]imidazol-5-yl)methanone]"
2,35,"COc1cc(C(=O)N2C[C@H]3CC[C@@H]2[C@@H]3N)cc2nc(-c3cc4scc(Br)c4n3CC3CC3)n(C)c12 [Example 1, ((1R,4R,7R)-7-amino-2-azabicyclo[2.2.1]heptan-2-yl)(2-(3-bromo-4-(cyclopropylmethyl)-4H-thieno[3,2-b]pyrrol-5-yl)-7-methoxy-1-methyl-1H-benzo[d]imidazol-5-yl)methanone]"
3,48,"COc1cc(C(=O)N2C[C@H]3CC[C@@H]2[C@@H]3N)cc2nc(-c3cc4scc(-c5ccn(C(C)C)n5)c4n3CC3CC3)n(C)c12 [Example 34, ((1R,4R,7R)-7-amino-2-azabicyclo[2.2.1]heptan-2-yl)(2-(4-(cyclopropylmethyl)-3-(1-isopropyl-1H-pyrazol-3-yl)-4H-thieno[3,2-b]pyrrol-5-yl)-7-methoxy-1-methyl-1H-benzo[d]imidazol-5-yl)methanone]"
4,53,"COc1cc(C(=O)N2C[C@H]3CC[C@@H]2[C@@H]3N)cc2nc(-c3cc4scc(-c5ccnn5C)c4n3CC3CC3)n(C)c12 [Example 45, ((1R,4R,7R)-7-amino-2-azabicyclo[2.2.1]heptan-2-yl)(2-(4-(cyclopropylmethyl)-3-(1-methyl-1H-pyrazol-5-yl)-4H-thieno[3,2-b]pyrrol-5-yl)-7-methoxy-1-methyl-1H-benzo[d]imidazol-5-yl)methanone]"
5,50,"COc1cc(C(=O)N2C[C@H](N)C[C@@H](F)C2)cc2nc(-c3cc4scc(-c5cnn(C)c5)c4n3CC3CC3)n(C)c12 [Example 33, ((3R,5R)-3-amino-5-fluoropiperidin-1-yl)(2-(4-(cyclopropylmethyl)-3-(1-methyl-1H-pyrazol-4-yl)-4H-thieno[3,2-b]pyrrol-5-yl)-7-methoxy-1-methyl-1H-benzo[d]imidazol-5-yl)methanone]"
6,179,"COc1cc(C(=O)N2C[C@H]3CC[C@@H]2[C@@H]3N)cc2nc(-c3cc4sc(-c5ccncc5)cc4n3CC3CC3)n(C)c12 [Example 25, ((1R,4R,7R)-7-Amino-2-azabicyclo[2.2.1]heptan-2-yl)(2-(4-(cyclopropylmethyl)-2-(pyridin-4-yl)-4H-thieno[3,2-b]pyrrol-5-yl)-7-methoxy-1-methyl-1H-benzo[d]imidazol-5-yl)methanone]"
7,173,"COc1cc(C(=O)N2C[C@H]3CC[C@@H]2[C@@H]3N)cc2nc(-c3cc4scc(-c5ccc[nH]5)c4n3CC3CC3)n(C)c12 [Example 46, ((1R,4R,7R)-7-amino-2-azabicyclo[2.2.1]heptan-2-yl)(2-(4-(cyclopropylmethyl)-3-(1H-pyrrol-2-yl)-4H-thieno[3,2-b]pyrrol-5-yl)-7-methoxy-1-methyl-1H-benzo[d]imidazol-5-yl)methanone]"
8,54,"COc1cc(C(=O)N2C[C@H]3CC[C@@H]2[C@@H]3N)cc2nc(-c3cc4scc(CCN5CCOC5=O)c4n3CC3CC3)n(C)c12 [Example 13, 3-(2-(5-(5-((1R,4R,7R)-7-amino-2-azabicyclo[2.2.1]heptane-2-carbonyl)-7-methoxy-1-methyl-1H-benzo[d]imidazol-2-yl)-4-(cyclopropylmethyl)-4H-thieno[3,2-b]pyrrol-3-yl)ethyl)oxazolidin-2-one]"
9,59,"COc1cc(C(=O)N2C[C@H]3CC[C@@H]2[C@@H]3N)cc2nc(-c3cc4scc(CCC#N)c4n3CC3CC3)n(C)c12 [Example 15, 3-(5-(5-((1R,4R,7R)-7-amino-2-azabicyclo[2.2.1]heptane-2-carbonyl)-7-methoxy-1-methyl-1H-benzo[d]imidazol-2-yl)-4-(cyclopropylmethyl)-4H-thieno[3,2-b]pyrrol-3-yl)propanenitrile]"
10,36,"COc1cc(C(=O)N2C[C@H]3CC[C@@H]2[C@@H]3N)cc2nc(-c3cc4scc(C5CC6(CNC6)C5)c4n3CC3CC3)n(C)c12 [Example 20, ((1R,4R,7R)-7-amino-2-azabicyclo[2.2.1]heptan-2-yl)(2-(4-(cyclopropylmethyl)-3-(2-azaspiro[3.3]heptan-6-yl)-4H-thieno[3,2-b]pyrrol-5-yl)-7-methoxy-1-methyl-1H-benzo[d]imidazol-5-yl)methanone]"
11,147,"COc1cc(C(=O)N2C[C@H]3CC[C@@H]2[C@@H]3N)cc2nc(-c3cc4scc(-c5ccncc5)c4n3CC3CC3)n(C)c12 [Example 47, ((1R,4R,7R)-7-amino-2-azabicyclo[2.2.1]heptan-2-yl)(2-(4-(cyclopropylmethyl)-3-(pyridin-4-yl)-4H-thieno[3,2-b]pyrrol-5-yl)-7-methoxy-1-methyl-1H-benzo[d]imidazol-5-yl)methanone]"
12,38,"COc1cc(C(=O)N2C[C@H]3CC[C@@H]2[C@@H]3N)cc2nc(-c3cc4scc(C5CC(O)C5)c4n3CC3CC3)n(C)c12 (single isomer, unassigned) [Example 21]"
13,107,"COc1cc(C(=O)N2C[C@H]3CC[C@@H]2[C@@H]3N)cc2nc(-c3cc4sc(-c5cn[nH]c5)cc4n3CC3CC3)n(C)c12 [Example 26, ((1R,4R,7R)-7-amino-2-azabicyclo[2.2.1]heptan-2-yl)(2-(4-(cyclopropylmethyl)-2-(1H-pyrazol-4-yl)-4H-thieno[3,2-b]pyrrol-5-yl)-7-methoxy-1-methyl-1H-benzo[d]imidazol-5-yl)methanone]"
14,82,"COc1cc(C(=O)N2C[C@H]3CC[C@@H]2[C@@H]3N)cc2nc(-c3cc4scc(C5CC(O)C5)c4n3CC3CC3)n(C)c12 (single isomer, unassigned) [Example 22]"
15,113,"COc1cc(C(=O)N2C[C@H]3CC[C@@H]2[C@@H]3N)cc2nc(-c3cc4scc(-c5cccn5C)c4n3CC3CC3)n(C)c12 [Example 44, ((1R,4R,7R)-7-amino-2-azabicyclo[2.2.1]heptan-2-yl)(2-(4-(cyclopropylmethyl)-3-(1-methyl-1H-pyrrol-2-yl)-4H-thieno[3,2-b]pyrrol-5-yl)-7-methoxy-1-methyl-1H-benzo[d]imidazol-5-yl)methanone]"
16,56,"COc1cc(C(=O)N2C[C@H]3CC[C@@H]2[C@@H]3N)cc2nc(-c3cc4scc(CCCO)c4n3CC3CC3)n(C)c12 [Example 14, ((1R,4R,7R)-7-amino-2-azabicyclo[2.2.1]heptan-2-yl)(2-(4-(cyclopropylmethyl)-3-(3-hydroxypropyl)-4H-thieno[3,2-b]pyrrol-5-yl)-7-methoxy-1-methyl-1H-benzo[d]imidazol-5-yl)methanone]"
17,47,"COc1cc(C(=O)N2C[C@H]3CC[C@@H]2[C@@H]3N)cc2nc(-c3cc4scc(CCC(N)=O)c4n3CC3CC3)n(C)c12 [Example 11, 3-(5-(5-((1R,4R,7R)-7-amino-2-azabicyclo[2.2.1]heptane-2-carbonyl)-7-methoxy-1-methyl-1H-benzo[d]imidazol-2-yl)-4-(cyclopropylmethyl)-4H-thieno[3,2-b]pyrrol-3-yl)propanamide]"
